# Test results reported in US11028079B2 (ConverGene LLC, priority 2015, dated 2021).
# Target: T1, BRD4 bromodomains (Homo sapiens, UniProt O60885)
# T1 construct: fused on or other part: T7 phage capsid protein (phage-display fusion; the phage DNA is read out by qPCR)
# Assay: BROMOscan bromodomain competition binding assay (DiscoveRx)
# Settings: Kd from 11 compound concentrations ranging from 0 to 10 μM, read-out: BROMOscan Relative Activity
# Procedure, shortened: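 Compounds in 0.1% DMSO/0.9% MEG competed with a solid-phase acetylated peptide for T7 phage-fused BRD4 bromodomains, with the retained bromodomain measured by qPCR.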
row,Kd [nM],SMILES
1,< 500,"Cc1noc(C)c1-c1ccc2nc(N3CCc4cnn(C)c4C3)nc(N3CCOC[C@@H]3c3ccccc3)c2c1 [Example 318, (S)-4-(6-(3,5-dimethylisoxazol-4-yl)-2-(1-methyl-1,4,5,7-tetrahydro-6H-pyrazolo[3,4-c]pyridin-6-yl)quinazolin-4-yl)-3-phenylmorpholine]"
2,< 500,"Cc1noc(C)c1-c1ccc2nc(N3CCN(CC(=O)N(C)C)CC3)nc(N3CCOC[C@@H]3c3ccccc3)c2c1 [Example 303, (S)-2-(4-(6-(3,5-dimethylisoxazol-4-yl)-4-(3-phenylmorpholino)quinazolin-2-yl)piperazin-1-yl)-N,N-dimethylacetamide]"
3,< 500,"Cc1noc(C)c1-c1ccc2nc(-c3cnn(CC(C)(C)O)c3)nc(N3CCN(S(C)(=O)=O)C[C@@H]3c3ccccc3)c2c1 [Example 310, (S)-1-(4-(6-(3,5-dimethylisoxazol-4-yl)-4-(4-(methylsulfonyl)-2-phenylpiperazin-1-yl)quinazolin-2-yl)-1H-pyrazol-1-yl)-2-methylpropan-2-ol]"
4,500 to 5000,"Cc1noc(C)c1-c1ccc2c(NCc3cccc(Cl)c3)nc(N3CCN(CCN(C)C)CC3)nc2c1 [Example 39, N-(3-chlorobenzyl)-2-(4-(2-(dimethylamino)ethyl)piperazin-1-yl)-7-(3,5-dimethylisoxazol-4-yl)quinazolin-4-amine]"
5,< 500,CNC(=O)CN1CCN(c2nc(N3CCOC[C@@H]3c3ccccc3)c3cc(-c4c(C)noc4C)ccc3n2)CC1 [Example 298]
6,500 to 5000,"Cc1noc(C)c1-c1ccc2nc(N3CCN(CCN(C)C)CC3)nc(NCc3ccco3)c2c1 [Example 79, 2-(4-(2-(dimethylamino)ethyl)piperazin-1-yl)-6-(3,5-dimethylisoxazol-4-yl)-N-(furan-2-ylmethyl)quinazolin-4-amine]"
7,< 500,"Cc1noc(C)c1-c1ccc2nc(N3CCN(CCN(C)C)CC3)nc(NCc3ccc(Cl)s3)c2c1 [Example 94, N-((5-chlorothiophen-2-yl)methyl)-2-(4-(2-(dimethylamino)ethyl)piperazin-1-yl)-6-(3,5-dimethylisoxazol-4-yl)quinazolin-4-amine]"
8,< 500,"Cc1noc(C)c1-c1ccc2nc(C(=O)NC3CS(=O)(=O)C3)nc(N3CCOC[C@@H]3c3ccccc3)c2c1 [Example 315, (S)-6-(3,5-dimethylisoxazol-4-yl)-N-(1,1-dioxidothietan-3-yl)-4-(3-phenylmorpholino)quinazoline-2-carboxamide]"
9,< 500,"Cc1noc(C)c1-c1ccc2nc(N3CCc4ncn(C)c4C3)nc(N3CCOC[C@@H]3c3ccccc3)c2c1 [Example 311, (S)-4-(6-(3,5-dimethylisoxazol-4-yl)-2-(3-methyl-3,4,6,7-tetrahydro-5H-imidazo[4,5-c]pyridin-5-yl)quinazolin-4-yl)-3-phenylmorpholine]"
10,< 500,"CNC(=O)Cn1cc(-c2nc(N3CCOC[C@@H]3c3ccccc3)c3cc(-c4c(C)noc4C)ccc3n2)cn1 [Example 272, (S)-2-(4-(6-(3,5-dimethylisoxazol-4-yl)-4-(3-phenylmorpholino)quinazolin-2-yl)-1H-pyrazol-1-yl)-N-methylacetamide]"
11,< 500,"Cc1noc(C)c1-c1ccc2nc(N3CCN(CC(N)=O)CC3)nc(NCc3cncc(Cl)c3)c2c1 [Example 117, 2-(4-(4-(((5-chloropyridin-3-yl)methyl)amino)-6-(3,5-dimethylisoxazol-4-yl)quinazolin-2-yl)piperazin-1-yl)acetamide]"
12,< 500,"Cc1ccncc1CNc1nc(N2CCN(CCN(C)C)CC2)nc2ccc(-c3c(C)noc3C)cc12 [Example 84, 2-(4-(2-(dimethylamino)ethyl)piperazin-1-yl)-6-(3,5-dimethylisoxazol-4-yl)-N-((4-methylpyridin-3-yl)methyl)quinazolin-4-amine]"
13,< 500,"Cc1noc(C)c1-c1ccc2nc(N3CCN(CC(C)O)CC3)nc(NCc3cccc(Cl)c3)c2c1 (centres unmarked) [Example 45, 1-(4-(4-((3-chlorobenzyl)amino)-6-(3,5-dimethylisoxazol-4-yl)quinazolin-2-yl)piperazin-1-yl)propan-2-ol]"
14,< 500,"Cc1noc(C)c1-c1ccc2nc(N3CCc4[nH]ncc4C3)nc(N3CCOC[C@@H]3c3ccccc3)c2c1 [Example 282, (S)-4-(6-(3,5-dimethylisoxazol-4-yl)-2-(1,4,6,7-tetrahydro-5H-pyrazolo[4,3-c]pyridin-5-yl)quinazolin-4-yl)-3-phenylmorpholine]"
15,< 500,"Cc1noc(C)c1-c1ccc2nc(N3CCN(C)CC3)nc(N3CCOC[C@@H]3c3ccccc3)c2c1 [Example 293, (S)-4-(6-(3,5-dimethylisoxazol-4-yl)-2-(4-methylpiperazin-1-yl)quinazolin-4-yl)-3-phenylmorpholine]"
16,< 500,"Cc1noc(C)c1-c1ccc2nc(N3CCC4(CCNC4=O)CC3)nc(N3CCOC[C@@H]3c3ccccc3)c2c1 [Example 329, (S)-8-(6-(3,5-dimethylisoxazol-4-yl)-4-(3-phenylmorpholino)quinazolin-2-yl)-2,8-diazaspiro[4.5]decan-1-one]"
17,< 500,"Cc1noc(C)c1-c1ccc2nc(N3CCC(S(C)(=O)=O)CC3)nc(NCc3cncc(Cl)c3)c2c1 [Example 154, N-((5-chloropyridin-3-yl)methyl)-6-(3,5-dimethylisoxazol-4-yl)-2-(4-(methylsulfonyl)piperidin-1-yl)quinazolin-4-amine]"

# The next lines start with the compound.
row,SMILES,Kd [nM]
1,"Cn1cc(-c2ccc3nc(N4CCN(CCO)CC4)nc(NCc4cncc(Cl)c4)c3c2)ccc1=O [Example 126, 5-(4-(((5-chloropyridin-3-yl)methyl)amino)-2-(4-(2-hydroxyethyl)piperazin-1-yl)quinazolin-6-yl)-1-methylpyridin-2(1H)-one]",< 500
2,"CN(C)CCCN1CCN(c2nc(NCc3cncc(Cl)c3)c3cc(-c4ccc(=O)n(C)c4)ccc3n2)CC1 [Example 125, 5-(4-(((5-chloropyridin-3-yl)methyl)amino)-2-(4-(3-(dimethylamino)propyl)piperazin-1-yl)quinazolin-6-yl)-1-methylpyridin-2(1H)-one]",< 500
3,"Cc1noc(C)c1-c1ccc2c(NCc3cccc(Cl)c3)nc(-c3cnn(CC(N)=O)c3)nc2c1 [Example 51, 2-(4-(4-((3-chlorobenzyl)amino)-7-(3,5-dimethylisoxazol-4-yl)quinazolin-2-yl)-1H-pyrazol-1-yl)acetamide]",500 to 5000
4,"Cc1ccncc1CNC(=O)c1nc(NCc2cccc(Cl)c2)c2cc(-c3c(C)noc3C)ccc2n1 [Example 187, 4-((3-chlorobenzyl)amino)-6-(3,5-dimethylisoxazol-4-yl)-N-((4-methylpyridin-3-yl)methyl)quinazoline-2-carboxamide]",< 500
5,"Cc1noc(C)c1-c1ccc2nc(C(=O)N3CCc4[nH]ncc4C3)nc(NC3(c4cccc(Cl)c4)CC3)c2c1 [Example 286, (4-((1-(3-chlorophenyl)cyclopropyl)amino)-6-(3,5-dimethylisoxazol-4-yl)quinazolin-2-yl)(1,4,6,7-tetrahydro-5H-pyrazolo[4,3-c]pyridin-5-yl)methanone]",< 500
6,"Cn1cc(-c2ccc3nc(N4CCN(CC(N)=O)CC4)nc(NCc4cncc(Cl)c4)c3c2)ccc1=O [Example 127, 2-(4-(4-(((5-chloropyridin-3-yl)methyl)amino)-6-(1-methyl-6-oxo-1,6-dihydropyridin-3-yl)quinazolin-2-yl)piperazin-1-yl)acetamide]",< 500
7,"Cc1noc(C)c1-c1ccc2nc(NCCN3CCOCC3)nc(NCc3cccc(Cl)c3)c2c1 [Example 10, N4-(3-chlorobenzyl)-6-(3,5-dimethylisoxazol-4-yl)-N2-(2-morpholinoethyl)quinazoline-2,4-diamine]",< 500
8,"Cc1noc(C)c1-c1ccc2nc(Cl)nc(Nc3ccc(Cl)cc3)c2c1 [Example 151, 2-chloro-N-(4-chlorophenyl)-6-(3,5-dimethylisoxazol-4-yl)quinazolin-4-amine]",> 5000
9,"Cc1ccc(NC(=O)c2nc(NCc3cccc(Cl)c3)c3cc(-c4c(C)noc4C)ccc3n2)cn1 [Example 219, 4-((3-chlorobenzyl)amino)-6-(3,5-dimethylisoxazol-4-yl)-N-(6-methylpyridin-3-yl)quinazoline-2-carboxamide]",500 to 5000
10,"CNC(=O)Cn1cc(-c2nc(NCc3cncc(Cl)c3)c3cc(-c4ccc(=O)n(C)c4)ccc3n2)cn1 [Example 147, 2-(4-(4-(((5-chloropyridin-3-yl)methyl)amino)-6-(1-methyl-6-oxo-1,6-dihydropyridin-3-yl)quinazolin-2-yl)-1H-pyrazol-1-yl)-N-methylacetamide]",< 500
11,"Cc1nn(C)cc1CNC(=O)c1nc(NCc2cncc(Cl)c2)c2cc(-c3c(C)noc3C)ccc2n1 [Example 238, 4-(((5-chloropyridin-3-yl)methyl)amino)-N-((1,3-dimethyl-1H-pyrazol-4-yl)methyl)-6-(3,5-dimethylisoxazol-4-yl)quinazoline-2-carboxamide]",< 500
12,"Cn1cc(-c2ccc3nc(-c4cnn(CCO)c4)nc(NCc4cccc(Cl)c4)c3c2)ccc1=O [Example 114, 5-(4-((3-chlorobenzyl)amino)-2-(1-(2-hydroxyethyl)-1H-pyrazol-4-yl)quinazolin-6-yl)-1-methylpyridin-2(1H)-one]",500 to 5000
13,"Cn1cc(-c2ccc3nc(N4CCN(C(=O)CN)CC4)nc(NCc4cncc(Cl)c4)c3c2)ccc1=O [Example 133, 5-(2-(4-(2-aminoacetyl)piperazin-1-yl)-4-(((5-chloropyridin-3-yl)methyl)amino)quinazolin-6-yl)-1-methylpyridin-2(1H)-one]",< 500
14,"Cc1noc(C)c1-c1ccc2c(NCc3cccc(Cl)c3)nc(Cl)nc2c1 [Example 38, 2-chloro-N-(3-chlorobenzyl)-7-(3,5-dimethylisoxazol-4-yl)quinazolin-4-amine]",500 to 5000
15,"CN(C)CCN1CCN(c2nc(NCc3cccc(Cl)c3)c3cc(Br)ccc3n2)CC1 [Example 19, 6-bromo-N-(3-chlorobenzyl)-2-(4-(2-(dimethylamino)ethyl)piperazin-1-yl)quinazolin-4-amine]",> 5000
